Earlier results on 3 compounds are cited in patent US20070269473A1, “Microbial Encapsulation” (priority 2004, published 2007).

The conditions of the data set: octanol/water; carriers.
1,3,5-trimethyl-Benzene (Mesitylene): the “logP(o/w)” value is 3.6.

Regarding `COC(=O)c1ccccc1` [Methyl benzoate], the “logP(o/w)” value was 1.8.

Regarding Acetophenone (1-phenyl-Ethanone), the “logP(o/w)” value is recorded as 1.7.
